Test results reported in US11840528B2 (Hoffmann-La Roche Inc., priority 2018, dated 2023).

Assays:
h-GABA-A α5β3γ2 [1] = biological target: T1, h-GABA-A α5β3γ2 (Homo sapiens, UniProt P18507+P31644); assay: Two-electrode voltage clamp electrophysiology in Xenopus laevis oocytes expressing GABAA receptors, modulation of GABA EC20 current; assay type: cell-based; design: host or cells: Xenopus laevis oocytes micro-injected with RNA transcripts of the subunits; conditions: Table 1; for Efficacy (GABA) %: % modulation of GABA EC20 = 100*(Fold increase-1); for Fold increase h-GABA-A α5β3γ2 oocyte: test compound at approx. 30 fold its Ki, GABA at EC20
Outline: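 Human α5β3γ2 GABAA receptors were expressed in Xenopus oocytes by RNA injection, with γ2 RNA 5–10-fold higher, and recorded 3–5 days later by two-electrode voltage clamp at −80 mV at room temperature. The test compound, at about 30× its Ki, was co-applied during a second GABA EC20 pulse. Efficacy is the extremum of the point-by-point ratio to the first response, expressed as 100*(Fold increase−1).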

h-GABA-A α5β3γ2 [2] = biological target: T1, h-GABA-A α5β3γ2; assay: [3H]flumazenil competition binding assay, membranes of HEK293 cells expressing GABAA receptors; conditions: displacement of [3H]-Flumazenil 0.5 nM, HEK293 cells expressing human receptors, mean of two determinations; Table 1
Outline: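 Membranes from HEK293 cells transiently expressing human α5β3γ2 GABAA receptors, in Krebs-tris buffer pH 7.5, competed against [3H]flumazenil for 1 hour at 4° C to equilibrium. Bound radioactivity collected on GF/C filters and counted by liquid scintillation; Ki values are means of two determinations.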

| Compound | Efficacy (GABA) % (h-GABA-A α5β3γ2 [1]) [%] | Fold increase h-GABA-A α5β3γ2 oocyte (h-GABA-A α5β3γ2 [1]) | Ki (h-GABA-A α5β3γ2 [2]) [nM] |
| --- | --- | --- | --- |
| CCO[C@H]1COC2(C1)CN(c1cnn(Cc3c(-c4ccc(C)nc4)noc3C)c(=O)c1)C2 [Example 135, 5-[(7R)-7-ethoxy-5-oxa-2-azaspiro[3.4]octan-2-yl]-2-[[5-methyl-3-(6-methyl-3-pyridyl)isoxazol-4-yl]methyl]pyridazin-3-one] | 119 | 2.19 | 28.1 |
| Cc1ccc(-c2noc(C)c2Cn2ncc(-c3ccc4ncc(C)n4c3)cc2=O)cn1 [Example 218, 2-((5-methyl-3-(6-methylpyridin-3-yl)isoxazol-4-yl)methyl)-5-(3-methylimidazo[1,2-a]pyridin-6-yl)pyridazin-3(2H)-one] | 84 | 1.84 | 19.8 |
| CCOc1ncc(-c2cnn(Cc3c(-c4ccc(C)nc4)noc3C)c(=O)c2)cc1C [Example 180, 5-(6-ethoxy-5-methylpyridin-3-yl)-2-((5-methyl-3-(6-methylpyridin-3-yl)isoxazol-4-yl)methyl)pyridazin-3(2H)-one] | 196 | 2.96 | 39 |
| Cc1ccc(-c2noc(C)c2Cn2ncc(N3CC(Oc4ccccc4)C3)cc2=O)cn1 [Example 94, 2-[[5-methyl-3-(6-methyl-3-pyridyl)isoxazol-4-yl]methyl]-5-(3-phenoxyazetidin-1-yl)pyridazin-3-one] | 136 | 2.36 | 7.8 |
| Cc1ccc(-c2noc(C)c2Cn2ncc(N3CC4(CCC(F)CO4)C3)cc2=O)cn1 (single isomer, unassigned) [Example 275] | 89 | 1.89 | 4.6 |
| Cc1ccc(-c2noc(C)c2Cn2ncc(N3CCN4C(=O)CCC4C3)cc2=O)cn1 (stereo not drawn) [Example 43, 2-(1-((5-methyl-3-(6-methylpyridin-3-yl)isoxazol-4-yl)methyl)-6-oxo-1,6-dihydropyridazin-4-yl)hexahydropyrrolo[1,2-a]pyrazin-6(2H)-one] | 174 | 2.74 | 10 |
| Cc1ccc(-c2noc(C)c2Cn2ncc(N3CC[C@@H](O)C3)cc2=O)cn1 [Example 3, 5-[(3R)-3-hydroxypyrrolidin-1-yl]-2-[[5-methyl-3-(6-methyl-3-pyridyl)isoxazol-4-yl]methyl]pyridazin-3-one] | 110 | 2.1 | 10.6 |
| Cc1onc(-c2ccc(Cl)cn2)c1Cn1ncc(N2CC(OCC3CC3)C2)cc1=O [Example 143, 2-((3-(5-Chloropyridin-2-yl)-5-methylisoxazol-4-yl)methyl)-5-(3-(cyclopropylmethoxy)azetidin-1-yl)pyridazin-3(2H)-one] | 68 | 1.68 | 3.3 |
| COc1ncc(-c2cnn(Cc3c(-c4ccc(Cl)nn4)noc3C)c(=O)c2)cc1Cl [Example 282, 5-(5-chloro-6-methoxypyridin-3-yl)-2-((3-(6-chloropyridazin-3-yl)-5-methylisoxazol-4-yl)methyl)pyridazin-3(2H)-one] | 166 | 2.66 | 1.5 |
| Cc1ccc(-c2noc(C)c2Cn2ncc(N3CCO[C@@H](C)C3)cc2=O)cn1 [Example 89, 2-[[5-methyl-3-(6-methyl-3-pyridyl)isoxazol-4-yl]methyl]-5-[(2S)-2-methylmorpholin-4-yl]pyridazin-3-one] | 189 | 2.89 | 1.4 |
| CCOC1CN(c2cnn(Cc3c(-c4ccc(Cl)nc4)noc3C)c(=O)c2Cl)C1 [Example 272, 4-chloro-2-((3-(6-chloropyridin-3-yl)-5-methylisoxazol-4-yl)methyl)-5-(3-ethoxyazetidin-1-yl)pyridazin-3(2H)-one] | 135 | 2.35 | 26.4 |
| Cc1onc(-c2ccc(Cl)nc2)c1Cn1ncc(N2CC(OCC(F)F)C2)cc1=O [Example 245, 2-((3-(6-chloropyridin-3-yl)-5-methylisoxazol-4-yl)methyl)-5-(3-(2,2-difluoroethoxy)azetidin-1-yl)pyridazin-3(2H)-one] | 106 | 2.06 | 18.7 |
| Cc1ccc(-c2noc(C)c2Cn2ncc(-c3ccnc(N(C)C)c3)cc2=O)cn1 [Example 156, 5-(2-(dimethylamino)pyridin-4-yl)-2-((5-methyl-3-(6-methylpyridin-3-yl)isoxazol-4-yl)methyl)pyridazin-3(2H)-one] | 66 | 1.66 | 2.6 |
| Cc1ccc(-c2noc(C)c2Cn2ncc(N3CC4(CC(C)CO4)C3)cc2=O)nn1 (single isomer, unassigned) [Example 240, 2-[[5-methyl-3-(6-methylpyridazin-3-yl)isoxazol-4-yl]methyl]-5-[(7R)-7-methyl-5-oxa-2-azaspiro[3.4]octan-2-yl]pyridazin-3-one or enantiomer] | 94 | 1.94 | 5.7 |
| Cc1ccc(-c2noc(C)c2Cn2ncc(N3CCC(C#N)CC3)cc2=O)cn1 [Example 34, 1-[1-[[5-methyl-3-(6-methyl-3-pyridyl)isoxazol-4-yl]methyl]-6-oxo-pyridazin-4-yl]piperidine-4-carbonitrile] | 222 | 3.22 | 4.3 |
| Cc1ccc(-c2noc(C)c2Cn2ncc(N3C[C@H]4COC[C@H]4C3)cc2=O)cn1 [Example 49, 5-[(3aR,6aS)-1,3,3a,4,6,6a-hexahydrofuro[3,4-c]pyrrol-5-yl]-2-[[5-methyl-3-(6-methyl-3-pyridyl)isoxazol-4-yl]methyl]pyridazin-3-one] | 167 | 2.67 | 13 |
| Cc1ccc(-c2noc(C)c2Cn2ncc(N3CCC4(CC3)CC(F)CCO4)cc2=O)nn1 (single isomer, unassigned) [Example 326] | 164 | 2.64 | 1.9 |
| COc1cc(-c2cnn(Cc3c(-c4ccc(C)nc4)noc3C)c(=O)c2)c(F)cn1 [Example 191, 5-(5-fluoro-2-methoxypyridin-4-yl)-2-((5-methyl-3-(6-methylpyridin-3-yl)isoxazol-4-yl)methyl)pyridazin-3(2H)-one] | 126 | 2.26 | 5.9 |
